Test results from ChEMBL document CHEMBL1201862, “PubChem BioAssay data set” (2004).
Activity calls are given as the source filed them.

Legend:
[1] = target: T1, Cysteine protease ATG4B (Homo sapiens, UniProt Q9Y4P1); assay: ATG4B protease inhibitors, dose response, biochemical, fluorescence, set 2 (AID 588584); assay type: functional
T1 sequence (Q9Y4P1 whole entry): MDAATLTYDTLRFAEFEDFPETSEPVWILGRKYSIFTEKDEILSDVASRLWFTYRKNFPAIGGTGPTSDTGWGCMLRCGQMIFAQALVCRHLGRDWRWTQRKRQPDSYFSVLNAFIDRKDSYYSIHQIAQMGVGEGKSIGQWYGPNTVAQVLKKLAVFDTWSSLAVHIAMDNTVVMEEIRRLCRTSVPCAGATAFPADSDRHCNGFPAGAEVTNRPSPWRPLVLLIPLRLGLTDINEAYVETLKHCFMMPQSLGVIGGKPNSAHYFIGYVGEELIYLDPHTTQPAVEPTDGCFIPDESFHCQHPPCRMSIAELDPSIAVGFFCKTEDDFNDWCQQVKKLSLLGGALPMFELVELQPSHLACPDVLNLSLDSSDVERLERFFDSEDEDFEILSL

[2] = target: Phospholipase A2 (Homo sapiens, UniProt P04054); assay: PLA2 enzyme inhibitors, dose response, counter-screen for ATG4B inhibitor project, biochemical, set 2 (AID 588586); assay type: functional
Phospholipase A2, sequence (P04054 whole entry): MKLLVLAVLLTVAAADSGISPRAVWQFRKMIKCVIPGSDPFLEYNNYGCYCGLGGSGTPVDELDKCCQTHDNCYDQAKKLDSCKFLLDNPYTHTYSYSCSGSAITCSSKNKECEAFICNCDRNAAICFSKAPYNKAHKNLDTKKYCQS

[3] = cytotoxicity in HEK-293T cells, dose response, cytotoxicity control for TCR NF-kB inhibitor project, luminescence, T-cell screen hits (AID 489026); assay type: functional, cell-based;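 also: cells exposed to compound about 14 hours before the viability readout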
[4] = cytotoxicity in HEK-293T NF-kB-Luc cells, dose response, cytotoxicity control for B/T-cell NF-kB inhibitor project, cell-based, uHTS hits (AID 489019); assay type: functional;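 also: IC50 reflects cytotoxicity as loss of cell viability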
[5] = target: Galanin receptor type 3 (Homo sapiens, UniProt O60755); assay: Fluorescence-based cell-based primary high throughput dose response assay to identify antagonists of the Galanin Receptor 3 (GalR3).; assay type: functional
Galanin receptor type 3, sequence (O60755 whole entry): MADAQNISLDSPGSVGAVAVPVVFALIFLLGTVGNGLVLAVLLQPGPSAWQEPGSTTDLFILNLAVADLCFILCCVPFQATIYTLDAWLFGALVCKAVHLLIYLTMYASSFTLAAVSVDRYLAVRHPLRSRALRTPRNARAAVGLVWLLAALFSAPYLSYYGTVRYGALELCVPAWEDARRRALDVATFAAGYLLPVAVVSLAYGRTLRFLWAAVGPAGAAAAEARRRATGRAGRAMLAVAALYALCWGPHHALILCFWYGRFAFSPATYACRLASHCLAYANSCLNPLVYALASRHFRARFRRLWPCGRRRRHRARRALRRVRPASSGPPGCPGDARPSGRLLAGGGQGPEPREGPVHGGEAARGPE

[6] = target: Galanin receptor type 2 (Homo sapiens, UniProt O43603); assay: Dose Response cell-based high-throughput screening assay to identify antagonists of galanin receptor 2 (GALR2). [Related pubchem assays: 828, 866 ]; assay type: functional
Galanin receptor type 2, sequence (O43603 whole entry): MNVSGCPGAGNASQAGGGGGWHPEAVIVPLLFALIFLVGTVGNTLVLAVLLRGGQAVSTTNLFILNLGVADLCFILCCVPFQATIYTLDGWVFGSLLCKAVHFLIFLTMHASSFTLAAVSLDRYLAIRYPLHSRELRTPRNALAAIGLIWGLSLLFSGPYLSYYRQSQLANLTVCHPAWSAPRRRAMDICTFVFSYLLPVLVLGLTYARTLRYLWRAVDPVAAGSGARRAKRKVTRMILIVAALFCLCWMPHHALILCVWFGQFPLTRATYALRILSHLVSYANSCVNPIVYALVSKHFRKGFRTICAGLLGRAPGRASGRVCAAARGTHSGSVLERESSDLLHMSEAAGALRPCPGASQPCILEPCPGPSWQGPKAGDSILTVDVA

[7] = system: INS1; assay: beta cell apoptosis inhibitors, cytokine rescue, dose response, luminescence, retest (AID 449756); assay type: functional, cell-based; conditions: Rattus norvegicus;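 also: cell death triggered by IL-1 beta plus TNF-alpha plus IFN-gamma mixture; protective hits raise ATP signal compared with cytokine alone wells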
[8] = system: Jurkat; assay: antigen receptor-induced NF-kB inhibitors, dose response, Jurkat, luciferase reporter, luminescence, B- and T-cell (AID 489004); assay type: functional, cell-based; conditions: Homo sapiens;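 also: NF-kB luciferase reporter Jurkat cells stimulated with PMA plus ionomycin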
[9] = cells; assay type: functional, cell-based; conditions: HEK-CNG
[10] = target: Cytochrome P450 2C9 (Homo sapiens, UniProt P11712)
Cytochrome P450 2C9, sequence (P11712 whole entry): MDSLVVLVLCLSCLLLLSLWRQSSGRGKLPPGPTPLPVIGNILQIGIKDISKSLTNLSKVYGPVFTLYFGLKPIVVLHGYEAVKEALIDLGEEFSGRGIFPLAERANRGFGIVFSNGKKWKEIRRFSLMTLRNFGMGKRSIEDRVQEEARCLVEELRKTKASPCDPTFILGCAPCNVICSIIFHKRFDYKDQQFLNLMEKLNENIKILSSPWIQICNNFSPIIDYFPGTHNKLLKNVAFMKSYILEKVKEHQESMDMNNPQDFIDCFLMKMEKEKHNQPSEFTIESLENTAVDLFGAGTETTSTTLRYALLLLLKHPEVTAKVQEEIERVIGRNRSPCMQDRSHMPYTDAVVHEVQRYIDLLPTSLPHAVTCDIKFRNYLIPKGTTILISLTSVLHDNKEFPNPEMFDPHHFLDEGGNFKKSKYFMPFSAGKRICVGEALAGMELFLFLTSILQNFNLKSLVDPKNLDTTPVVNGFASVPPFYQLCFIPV

[11] = target: Cytochrome P450 3A4 (Homo sapiens, UniProt P08684);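 also: CYP3A4 tested as one member of a cytochrome P450 panel screen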
Cytochrome P450 3A4, sequence (P08684 whole entry): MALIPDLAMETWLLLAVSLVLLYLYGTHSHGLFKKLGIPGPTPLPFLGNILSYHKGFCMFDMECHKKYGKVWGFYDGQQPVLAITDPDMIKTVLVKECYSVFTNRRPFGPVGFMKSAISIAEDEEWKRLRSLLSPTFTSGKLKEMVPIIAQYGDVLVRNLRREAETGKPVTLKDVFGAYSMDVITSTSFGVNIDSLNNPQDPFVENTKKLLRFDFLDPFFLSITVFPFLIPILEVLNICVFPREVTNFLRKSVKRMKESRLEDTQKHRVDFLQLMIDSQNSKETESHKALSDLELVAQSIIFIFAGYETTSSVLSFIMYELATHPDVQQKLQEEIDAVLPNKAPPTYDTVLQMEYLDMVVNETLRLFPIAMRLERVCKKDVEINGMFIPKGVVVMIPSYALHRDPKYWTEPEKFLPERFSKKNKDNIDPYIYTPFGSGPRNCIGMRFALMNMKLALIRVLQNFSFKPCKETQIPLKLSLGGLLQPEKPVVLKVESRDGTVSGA

[12] = target: T2, Cytochrome P450 1A2 (Homo sapiens, UniProt P05177);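 also: PubChem cytochrome P450 panel assay, CYP1A2 panel member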
T2 sequence (P05177 whole entry): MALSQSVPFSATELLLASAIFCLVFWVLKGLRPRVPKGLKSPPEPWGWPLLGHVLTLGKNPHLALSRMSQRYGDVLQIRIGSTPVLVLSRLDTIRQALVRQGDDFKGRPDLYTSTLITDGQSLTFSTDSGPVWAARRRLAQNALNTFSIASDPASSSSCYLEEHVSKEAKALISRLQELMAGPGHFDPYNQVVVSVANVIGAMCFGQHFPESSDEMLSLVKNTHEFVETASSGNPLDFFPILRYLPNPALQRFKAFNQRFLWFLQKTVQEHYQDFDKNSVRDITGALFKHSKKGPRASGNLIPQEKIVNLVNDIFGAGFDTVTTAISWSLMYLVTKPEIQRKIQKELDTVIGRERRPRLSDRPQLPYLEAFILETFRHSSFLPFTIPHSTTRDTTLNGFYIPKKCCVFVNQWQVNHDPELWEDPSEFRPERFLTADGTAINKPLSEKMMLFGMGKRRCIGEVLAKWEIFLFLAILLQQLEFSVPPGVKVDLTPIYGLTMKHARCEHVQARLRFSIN

[13] = target: Cytochrome P450 2D6 (Homo sapiens, UniProt P10635);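 also: CYP2D6 member of a cytochrome P450 panel assay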
Cytochrome P450 2D6, sequence (P10635 whole entry): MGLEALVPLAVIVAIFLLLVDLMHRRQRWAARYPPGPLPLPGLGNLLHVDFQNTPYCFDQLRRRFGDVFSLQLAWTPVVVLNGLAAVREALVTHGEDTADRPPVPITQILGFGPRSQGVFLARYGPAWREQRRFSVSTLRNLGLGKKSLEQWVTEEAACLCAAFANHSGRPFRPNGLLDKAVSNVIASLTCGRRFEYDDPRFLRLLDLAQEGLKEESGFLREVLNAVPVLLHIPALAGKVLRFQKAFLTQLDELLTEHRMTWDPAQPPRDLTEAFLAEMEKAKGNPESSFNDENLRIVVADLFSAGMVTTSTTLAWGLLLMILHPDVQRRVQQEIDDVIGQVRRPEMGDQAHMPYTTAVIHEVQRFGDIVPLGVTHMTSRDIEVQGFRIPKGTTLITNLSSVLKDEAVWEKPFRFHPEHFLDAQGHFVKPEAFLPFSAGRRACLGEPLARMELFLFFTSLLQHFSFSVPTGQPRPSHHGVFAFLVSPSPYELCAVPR

[14] = target: Cytochrome P450 2C19 (Homo sapiens, UniProt P33261); assay: Cytochrome panel assay with activity outcomes. Panel member name: p450-cyp2c19 Compounds with AC50 equal or less than 10 uM are considered active; assay type: functional
Cytochrome P450 2C19, sequence (P33261 whole entry): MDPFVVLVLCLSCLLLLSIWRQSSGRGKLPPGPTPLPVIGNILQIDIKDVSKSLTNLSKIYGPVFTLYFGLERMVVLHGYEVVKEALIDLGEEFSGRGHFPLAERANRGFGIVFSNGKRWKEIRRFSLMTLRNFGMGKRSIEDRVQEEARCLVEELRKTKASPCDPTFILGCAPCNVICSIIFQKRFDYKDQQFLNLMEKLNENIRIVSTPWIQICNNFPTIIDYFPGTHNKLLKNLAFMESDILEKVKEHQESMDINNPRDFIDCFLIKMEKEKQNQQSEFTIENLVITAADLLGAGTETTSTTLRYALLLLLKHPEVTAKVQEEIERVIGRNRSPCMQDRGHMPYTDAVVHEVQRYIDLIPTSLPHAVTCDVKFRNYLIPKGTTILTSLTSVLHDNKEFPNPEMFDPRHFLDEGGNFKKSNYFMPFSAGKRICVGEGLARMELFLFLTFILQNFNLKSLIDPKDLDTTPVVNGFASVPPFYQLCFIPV

[15] = target: Tumor necrosis factor (Homo sapiens, UniProt P01375); assay: TNFa-triggered NF-kB activation inhibitors, SAR follow-up, cell-based, set 3 (AID 2801); assay type: functional
Tumor necrosis factor, sequence (P01375 whole entry): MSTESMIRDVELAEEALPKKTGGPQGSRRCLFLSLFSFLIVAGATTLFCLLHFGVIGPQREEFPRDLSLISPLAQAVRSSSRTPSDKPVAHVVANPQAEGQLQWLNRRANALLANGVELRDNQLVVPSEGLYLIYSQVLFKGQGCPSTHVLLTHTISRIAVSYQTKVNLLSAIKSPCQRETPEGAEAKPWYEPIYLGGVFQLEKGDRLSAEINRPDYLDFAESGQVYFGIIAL

[16] = system: HEK293; assay: SAR analysis of compounds that are cytotoxic to HEK293 - Set 2. [Related pubchem assays (depositor defined):AID1575, AID1578, AID1849, AID2001, AID2333, AID2334, AID2335, AID2337, AID2800]; assay type: functional, cell-based; conditions: Homo sapiens
[17] = target: T3, Nucleotide-binding oligomerization domain-containing protein 1 (Homo sapiens, UniProt Q9Y239); assay: SAR analysis of compounds that inhibit NOD1 - Set 2. [Related pubchem assays (depositor defined):AID1566, AID1575, AID1578, AID1849, AID1852, AID2333, AID2335, AID2798]; assay type: functional
T3 sequence (Q9Y239 whole entry): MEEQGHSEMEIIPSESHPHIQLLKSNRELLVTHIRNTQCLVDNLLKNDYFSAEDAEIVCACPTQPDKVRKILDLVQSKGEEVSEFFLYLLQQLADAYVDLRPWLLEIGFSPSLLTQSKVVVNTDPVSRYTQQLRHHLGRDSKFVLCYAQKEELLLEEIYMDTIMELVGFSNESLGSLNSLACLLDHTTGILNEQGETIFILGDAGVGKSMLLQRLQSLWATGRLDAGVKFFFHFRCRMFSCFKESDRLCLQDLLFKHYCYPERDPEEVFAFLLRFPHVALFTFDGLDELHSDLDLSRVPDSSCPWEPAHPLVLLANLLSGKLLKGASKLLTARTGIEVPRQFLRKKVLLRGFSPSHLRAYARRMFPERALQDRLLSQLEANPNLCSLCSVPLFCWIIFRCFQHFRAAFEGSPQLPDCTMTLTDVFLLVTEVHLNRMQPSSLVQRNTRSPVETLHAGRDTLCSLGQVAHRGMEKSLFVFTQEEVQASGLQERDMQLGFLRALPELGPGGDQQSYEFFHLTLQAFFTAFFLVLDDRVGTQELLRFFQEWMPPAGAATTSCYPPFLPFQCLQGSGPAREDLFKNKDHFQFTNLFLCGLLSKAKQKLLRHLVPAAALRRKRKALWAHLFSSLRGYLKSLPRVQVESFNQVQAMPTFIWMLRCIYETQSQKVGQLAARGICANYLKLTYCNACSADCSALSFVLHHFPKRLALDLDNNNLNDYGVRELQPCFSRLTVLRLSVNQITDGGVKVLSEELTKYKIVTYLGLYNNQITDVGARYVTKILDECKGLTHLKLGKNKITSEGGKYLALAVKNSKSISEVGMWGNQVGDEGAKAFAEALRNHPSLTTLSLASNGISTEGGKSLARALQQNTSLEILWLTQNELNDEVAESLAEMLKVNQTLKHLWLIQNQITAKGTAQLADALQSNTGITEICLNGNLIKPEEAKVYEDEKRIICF

[18] = target: T4, Nucleotide-binding oligomerization domain-containing protein 2 (Homo sapiens, UniProt Q9HC29); assay: NOD2 signaling inhibitors, analog potency, SAR follow-up, cell-based, set 3 (AID 2799); assay type: functional
T4 sequence (Q9HC29 whole entry, the tested form may be a part): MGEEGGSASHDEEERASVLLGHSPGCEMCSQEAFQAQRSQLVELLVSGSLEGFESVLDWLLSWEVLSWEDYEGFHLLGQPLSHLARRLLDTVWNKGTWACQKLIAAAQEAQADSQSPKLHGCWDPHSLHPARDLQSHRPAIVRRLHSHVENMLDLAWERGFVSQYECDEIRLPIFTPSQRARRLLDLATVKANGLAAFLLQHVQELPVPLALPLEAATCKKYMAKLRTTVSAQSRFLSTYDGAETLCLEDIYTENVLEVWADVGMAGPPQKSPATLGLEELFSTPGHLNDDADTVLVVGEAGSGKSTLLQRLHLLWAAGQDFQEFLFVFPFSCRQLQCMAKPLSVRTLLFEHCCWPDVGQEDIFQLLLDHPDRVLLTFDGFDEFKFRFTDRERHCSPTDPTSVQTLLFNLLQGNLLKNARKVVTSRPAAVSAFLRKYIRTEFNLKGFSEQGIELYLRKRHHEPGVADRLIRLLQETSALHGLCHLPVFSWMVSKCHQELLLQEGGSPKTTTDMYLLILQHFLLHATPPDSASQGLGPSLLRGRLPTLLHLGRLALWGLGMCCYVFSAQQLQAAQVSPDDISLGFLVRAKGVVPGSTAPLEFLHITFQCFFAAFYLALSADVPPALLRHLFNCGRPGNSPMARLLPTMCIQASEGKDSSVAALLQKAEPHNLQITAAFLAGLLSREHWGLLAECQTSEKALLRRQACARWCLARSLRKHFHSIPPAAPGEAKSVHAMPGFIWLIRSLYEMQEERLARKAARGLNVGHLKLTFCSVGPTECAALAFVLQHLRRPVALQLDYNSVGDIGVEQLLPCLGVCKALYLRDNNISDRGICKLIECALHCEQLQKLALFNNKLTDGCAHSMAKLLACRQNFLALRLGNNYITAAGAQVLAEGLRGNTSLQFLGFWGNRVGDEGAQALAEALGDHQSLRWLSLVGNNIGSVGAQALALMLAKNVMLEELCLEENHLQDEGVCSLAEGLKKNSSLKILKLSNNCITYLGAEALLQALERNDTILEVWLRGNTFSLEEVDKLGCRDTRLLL

[19] = target: T5, Interleukin-8 (Homo sapiens, UniProt P10145); assay: SAR analysis of GM-Tri-DAP induced IL-8 secretion in MCF-7/NOD1 cells - Set 2. [Related pubchem assays (depositor defined):AID1575, AID1578, AID2333]; assay type: functional, cell-based
T5 sequence (P10145 whole entry): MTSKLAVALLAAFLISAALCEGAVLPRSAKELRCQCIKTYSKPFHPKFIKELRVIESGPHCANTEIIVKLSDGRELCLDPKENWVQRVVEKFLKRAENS

[20] = target: T4, Nucleotide-binding oligomerization domain-containing protein 2; assay: NOD2 inhibitors, SAR follow-up, set 2 (AID 2475); assay type: functional
[21] = system: HEK293; assay: SAR analysis of compounds that are cytotoxic to HEK293 - Set 3. [Related pubchem assays (depositor defined):AID1575, AID1578, AID1848, AID1849, AID2001, AID2333, AID2334, AID2335, AID2337, AID2469]; assay type: functional, cell-based; conditions: Homo sapiens
[22] = target: T3, Nucleotide-binding oligomerization domain-containing protein 1; assay: SAR analysis of compounds that inhibit NOD1 - Set 3. [Related pubchem assays (depositor defined):AID1566, AID1575, AID1578, AID1849, AID1852, AID2333, AID2335, AID2466]; assay type: functional
[23] = target: T5, Interleukin-8; assay: SAR analysis of Tumor necrosis factor alpha (TNF-alpha) induced IL-8 secretion in MCF-7/NOD1 cells - Set 2. [Related pubchem assays (depositor defined):AID1575, AID2250, AID2260]; assay type: functional, cell-based
[24] = target: T3, Nucleotide-binding oligomerization domain-containing protein 1; assay: SAR analysis of NF-kappaB dependent luciferase using DAP as an inducer - Set 2. [Related pubchem assays (depositor defined):AID1566, AID1575, AID1578, AID1579, AID1849, AID1852, AID2264]; assay type: functional
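For EC50 in this document: target is galanin receptor GalR3 read with a cAMP biosensor in HEK293 cells.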

Structure (SMILES): Cc1noc(C)c1CSc1nc2ccccc2c(=O)n1-c1ccccc1
- IC50 [1]: 19.2 µM (active)
- IC50 [2]: 10.7 µM (active)
- IC50 [3]: > 80 µM (inactive)

Structure (SMILES): Cn1nc(C(C)(C)C)cc1C(=O)NCc1ccc(N2CCCC2=O)cc1
- IC50 [4]: > 80 µM (inactive)
- IC50 [5]: 1.13 µM (active)
- IC50 [6]: > 42 µM (not active)
- AC50 [7]: 2.85 µM (active)
- IC50 [8]: > 80 µM (inactive)
- EC50 [9]: > 29.9 µM (inactive)

Structure (SMILES): Cc1ncc(CO)c(/C=N/CCCCCC/N=C/c2c(CO)cnc(C)c2[O-])c1[O-].[Mg+2]
- AC50 [10]: inactive
- AC50 [11]: inactive
- AC50 [12]: inactive
- AC50 [13]: inactive
- AC50 [14]: inactive

Structure (SMILES): COCCn1c(SCCCc2ccccc2)nc2c1c(=O)[nH]c(=O)n2C
- IC50 [15]: > 20 µM (inactive)
- IC50 [16]: > 20 µM (inactive)
- IC50 [17]: > 20 µM (inactive)
- IC50 [18]: > 20 µM (inactive)
- IC50 [19]: > 25 µM (inactive)
- IC50 [20]: > 20 µM (inactive)
- IC50 [21]: > 20 µM (inactive)
- IC50 [22]: > 20 µM (inactive)
- IC50 [23]: > 25 µM (inactive)
- IC50 [24]: > 25 µM (inactive)
